The values below come from article PMC11576395 (iScience, 2024).

Read-outs that look alike come from different tables or passages of the source.

Experiment in all cases: thioflavin T aggregation assay of recombinant protein, […] compound
What all share (type): biochemical
Common to all, as to details: read-out: % inhibition at 50 μM

For assay [1], the target named is T1, α-synuclein (Homo sapiens, UniProt P37840).
In assay [2] the target is T1, α-synuclein. This is another data set of the same source.
For assay [3], the target named is T2, AIMP2 (aminoacyl-tRNA synthetase interacting multifunctional protein-2) (Homo sapiens, UniProt Q13155).
T2 sequence (Q13155 1-320): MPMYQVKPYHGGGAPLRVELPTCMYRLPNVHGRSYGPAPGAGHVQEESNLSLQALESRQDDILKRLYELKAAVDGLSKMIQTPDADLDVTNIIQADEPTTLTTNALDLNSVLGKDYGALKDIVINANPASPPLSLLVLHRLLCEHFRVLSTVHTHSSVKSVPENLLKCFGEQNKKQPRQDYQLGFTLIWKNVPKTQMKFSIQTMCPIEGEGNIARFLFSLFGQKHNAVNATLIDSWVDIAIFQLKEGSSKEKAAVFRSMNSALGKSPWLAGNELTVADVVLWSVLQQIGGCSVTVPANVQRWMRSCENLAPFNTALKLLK

Broadly, the inhibition is the percentage by which the read-out fell short of the control. Take `C[C@]12CC[C@H]3[C@@H](CCC4=CC(=O)CC[C@@H]43)[C@@H]1CC[C@@H]2O` [Nandrolone]: the inhibition at 50 µM at α-synuclein [1] is approximately 39.9%. In the case of `CC(C)COc1ccc2c(c1)CC[C@@H]1[C@@H]2CC[C@]2(C)[C@H](O)CC[C@@H]12` [SG13-136, (8R,9S,13S,14S,17R)-3-isobutoxy-13-methyl-7,8,9,11,12,13,14,15,16,17-decahydro-6H-cyclopenta[a]phenanthren-17-ol], the inhibition at 50 µM on α-synuclein [2] was determined as 36.7%; in assay [3] it was 56.2%.
